Data from paper PMC13327496, “The X‐Ray Crystal Structure of BorF, the Flavin Reductase Subunit of a Two‐Component Flavin‐Dependent Tryptophan Halogenase” (Proteins, 2026).

Key:
[1] = target: T1, BorF (uncultured bacterium, UniProt M9QXS1); test: NADH depletion at […] nm; type: biochemical; settings: 25 mM HEPES pH 7.5, room temperature
T1 construct: full-length residues 1-196 plus an N-terminal Pro after PreScission cleavage; His6-MBP tag removed; synthetic gene, E. coli Rosetta2(DE3) pLysS; homodimer
T1 sequence (M9QXS1 1-196): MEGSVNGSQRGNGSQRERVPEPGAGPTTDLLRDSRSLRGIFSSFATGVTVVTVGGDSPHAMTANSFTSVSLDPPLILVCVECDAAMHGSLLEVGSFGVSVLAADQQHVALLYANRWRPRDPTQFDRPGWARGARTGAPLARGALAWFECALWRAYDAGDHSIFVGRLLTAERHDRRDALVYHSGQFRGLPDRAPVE

[2] = target: BorF (soil bacterial metagenome from the Anza-Borrego desert); test: SEC; BorF alone after tag cleavage, Superdex 200, 20 mM Tris pH 7.5, 150 mM NaCl; single peak at 78.2 mL

Q: For Cc1cc2nc3c(=O)[nH]c(=O)nc-3n(C[C@H](O)[C@H](O)[C@H](O)COP(=O)(O)O)c2cc1C [FMN], which “NADH depletion at 340 nm” value ([1]; apo-BorF, 25 μM FMN, 100 μM NADH) is on record?
A: BorF utilizes FAD as a substrate but is also able to reduce FMN and riboflavin

Q: With NC(=O)C1=CN([C@@H]2O[C@H](COP(=O)(O)OP(=O)(O)OC[C@H]3O[C@@H](n4cnc5c(N)ncnc54)[C@H](O)[C@@H]3O)[C@@H](O)[C@H]2O)C=CC1 [NADH] as the compound, how does the “NADH depletion at 340 nm” value ([1]; apo-BorF 0.2 μM, 25 μM FAD) read?
A: BorF oxidizes NADH to NAD^+, as determined by NADH depletion monitored by absorbance

Q: How did the stoichiometry N [2] turn out when BorF (enzyme) was run?
A: 2
